Measured values published in patent US11634594B2, “Antimicrobial agent for coatings and finishes” (SWIMC LLC, priority 2016, dated 2023).

Test system: challenge pool of 7 bacteria: P. aeruginosa, E. aerogenes, E. coli, K. pneumonia, S. aureus, B. subtilis and S. enterica
Assay: ASTM D 2574 (modified) on pigment dispersions, split samples aged at room temperature / 3 weeks 60° C. / 6 weeks 60° C.
Type: cell-based
Description: ASTM D 2574: Standard Test for Resistance of Emulsion Paints in the Container to Attack by Microorganisms.
The test is conducted in accordance with the ASTM standard, except for the following modifications noted for the preparation of the inoculum and test procedure.
Preparation of Inoculum: There are 7 bacteria used in forming the challenge pool, they include: P. aeruginosa (ATCC #10145), E. aerogenes (ATCC #13048), E. coli (ATCC #10536), K. pneumonia (ATCC #10031), S. aureus (ATCC #6538), B. subtilis (ATCC #6051) and S. enterica (ATCC #13312). Bacterial cultures are prepared 24 hours before the test is scheduled to start by selecting one colony from a plate with a […], inoculating loop, adding it to 10 mL of sterile tryptic soy broth tubes and placing it on the shaking incubator. A 1 mL of each of the seven organisms is combined into a pool in a conical tube. A 1 mL of the created pool is then added to a 9 mL of sterile tryptic soy broth in a conical tube to get an inoculum concentration of ˜10^8 CFU/mL.
Test Procedure: A 1:100 dilution of the inoculum is added into each sample (ex. […], into 40 mL of sample) which provides a ˜10^6 CFU/mL challenge. The samples are then placed into 35° C. incubator for 24 hours to grow new organisms before each inoculation. The samples are inoculated on Days: 0, 2, 7 and 14. The samples are put back into incubator after each inoculation. […]

## bismuth aluminate
Table 4
  effectiveness compared with isothiazolone antimicrobial agent: at least as effective as the isothiazolone antimicrobial agent
Initial results
  preventing microbial growth: effective in preventing microbial growth
